Activity calls are given as the source filed them. No cut-off for these calls is given here.
What was measured:
UGT [1] = target: T1, UGT (Homo sapiens, UniProt O60656+O75310+O75795+P06133+P0DTE4+P0DTE5+P16662+P19224+P22309+P22310+P35503+P35504+P36537+P54855+Q6UWM9+Q9BY64+Q9HAW7+Q9HAW8+Q9HAW9); assay: Drug metabolism in human liver S9 fraction assessed as UGT-mediated metabolism by measuring parent compound remaining at 5 uM measured immediately in presence of UDPGA by UPLC analysis; format: ADME, subcellular; settings: read-out: Stability
CYP450 [2] = target: T2, CYP450 (Homo sapiens, UniProt P04798+P05177+P05181+P08684+P10632+P10635+P11509+P11712+P13584+P20813+P20815+P20853+P24462+P24903+P33260+P33261+P51589+P78329+P98187+Q02928+Q08477+Q16678+Q16696+Q5TCH4+Q6VVX0+Q7Z449+Q8TAV3+Q96SQ9+Q9HB55); assay: Drug metabolism in human liver S9 fraction assessed as CYP450-mediated metabolism by measuring parent compound remaining at 5 uM measured after 30 mins in presence of NADPH by UPLC analysis; format: ADME, subcellular; settings: read-out: Stability
CYP450 [3] = assay: Drug metabolism in mouse liver S9 fraction assessed as CYP450-mediated metabolism by measuring parent compound remaining at 5 uM measured after 60 mins in presence of NADPH by UPLC analysis; format: ADME, subcellular; settings: read-out: Stability
CYP450 [4] = assay: Drug metabolism in mouse liver S9 fraction assessed as CYP450-mediated metabolism by measuring parent compound remaining at 5 uM measured after 30 mins in presence of NADPH by UPLC analysis; format: ADME, subcellular; settings: read-out: Stability
Trypanosoma brucei [5] = assay: Resistance factor, ratio of EC50 for Trypanosoma brucei TbAT1-KO to EC50 for wild type Trypanosoma brucei Lister 427; format: functional
CYP450 [6] = target: T2, CYP450; assay: Drug metabolism in human liver S9 fraction assessed as CYP450-mediated metabolism by measuring parent compound remaining at 5 uM measured immediately in presence of NADPH by UPLC analysis; format: ADME, subcellular; settings: read-out: Stability
[7] = Inhibition of [3H]-adenosine transport at Trypanosoma brucei Adenosine transporter P1 expressed in pentamidine/diminazene/melaminophenyl arsenical resistant Trypanosoma brucei B48 bloodstream forms after 60 secs by scintillation counting analysis
UGT [8] = assay: Drug metabolism in mouse liver S9 fraction assessed as UGT-mediated metabolism by measuring parent compound remaining at 5 uM measured immediately in presence of UDPGA by UPLC analysis; format: ADME, subcellular; settings: read-out: Stability
CYP450 [9] = assay: Drug metabolism in mouse liver S9 fraction assessed as CYP450-mediated metabolism by measuring parent compound remaining at 5 uM measured immediately in presence of NADPH by UPLC analysis; format: ADME, subcellular; settings: read-out: Stability
UGT [10] = assay: Drug metabolism in rat liver S9 fraction assessed as UGT-mediated metabolism by measuring parent compound remaining at 5 uM measured after 15 mins in presence of UDPGA by UPLC analysis; format: ADME, subcellular; settings: read-out: Stability
Trypanosoma brucei [11] = assay: Antitrypanosomal activity against Trypanosoma brucei TbAT1-KO after 48 hrs by alamar blue assay; format: functional, organism-based
Trypanosoma cruzi = assay: Antitrypanosomal activity against nifurtimox-sensitive Trypanosoma cruzi Tulahuen CL2 harboring beta-galactosidase infected in human MRC5 cells after 7 days by resazurin dye-based assay; format: functional, organism-based
[12] = tested on: UDP-glucuronosyltransferases (UGTs); assay: Drug metabolism in human liver S9 fraction assessed as UGT-mediated metabolism by measuring parent compound remaining at 5 uM measured after 15 mins in presence of UDPGA by UPLC analysis; format: ADME, subcellular; settings: s9, 0.25 h
CYP450 [13] = assay: Drug metabolism in rat liver S9 fraction assessed as CYP450-mediated metabolism by measuring parent compound remaining at 5 uM measured after 60 mins in presence of NADPH by UPLC analysis; format: ADME, subcellular; settings: read-out: Stability
Trypanosoma brucei [14] = assay: Antitrypanosomal activity against isometamidium resistant Trypanosoma brucei ISMR1 after 48 hrs by alamar blue assay; format: functional, organism-based; settings: ISMR1, 48 h
UGT [15] = assay: Drug metabolism in mouse liver S9 fraction assessed as UGT-mediated metabolism by measuring parent compound remaining at 5 uM measured after 15 mins in presence of UDPGA by UPLC analysis; format: ADME, subcellular; settings: read-out: Stability
CYP450 [16] = assay: Drug metabolism in rat liver S9 fraction assessed as CYP450-mediated metabolism by measuring parent compound remaining at 5 uM measured after 30 mins in presence of NADPH by UPLC analysis; format: ADME, subcellular; settings: read-out: Stability
CYP450 [17] = assay: Drug metabolism in mouse liver S9 fraction assessed as CYP450-mediated metabolism by measuring parent compound remaining at 5 uM measured after 15 mins in presence of NADPH by UPLC analysis; format: ADME, subcellular; settings: read-out: Stability
[18] = Selectivity index, ratio of EC50 for human MRC5 cells to EC50 for Trypanosoma brucei rhodesiense STIB-900; format: toxicity; settings: read-out: Ratio EC50
[19] = tested on: Trypanosoma brucei rhodesiense; assay: Antitrypanosomal activity against Trypanosoma brucei rhodesiense STIB-900 after 48 hrs by alamar blue assay; format: functional, organism-based; settings: STIB-900, 48 h
UGT [20] = assay: Drug metabolism in mouse liver S9 fraction assessed as UGT-mediated metabolism by measuring parent compound remaining at 5 uM measured after 30 mins in presence of UDPGA by UPLC analysis; format: ADME, subcellular; settings: read-out: Stability
[21] = tested on: Trypanosoma brucei brucei; assay: Antitrypanosomal activity against Trypanosoma brucei brucei Squib 427 after 48 hrs by alamar blue assay; format: functional, organism-based; settings: Squib 427, 48 h
[22] = Selectivity index, ratio of EC50 for human MRC5 cells to EC50 for Trypanosoma brucei brucei Squib 427; format: toxicity; settings: read-out: Ratio EC50
[23] = Drug metabolism in rat liver S9 fraction assessed as UGT-mediated metabolism by measuring parent compound remaining at 5 uM measured after 30 mins in presence of UDPGA by UPLC analysis; format: ADME, subcellular; settings: s9, 0.5 h
[24] = Drug metabolism in mouse liver S9 fraction assessed as UGT-mediated metabolism by measuring parent compound remaining at 5 uM measured after 60 mins in presence of UDPGA by UPLC analysis; format: ADME, subcellular; settings: s9, 1 h
[25] = Drug metabolism in rat liver S9 fraction assessed as UGT-mediated metabolism by measuring parent compound remaining at 5 uM measured after 60 mins in presence of UDPGA by UPLC analysis; format: ADME, subcellular; settings: s9, 1 h
CYP450 [26] = target: T2, CYP450; assay: Drug metabolism in human liver S9 fraction assessed as CYP450-mediated metabolism by measuring parent compound remaining at 5 uM measured after 15 mins in presence of NADPH by UPLC analysis; format: ADME, subcellular; settings: read-out: Stability
Trypanosoma brucei [27] = assay: Antitrypanosomal activity against pentamidine/diminazene/melaminophenyl arsenical resistant Trypanosoma brucei B48 after 48 hrs by alamar blue assay; format: functional, organism-based; settings: B48, 48 h
MRC5 = assay: Cytotoxicity against human MRC5 cells assessed as reduction in cell viability after 3 days by resazurin dye-based assay; settings: MRC5, 72 h
CYP450 [28] = target: T2, CYP450; assay: Drug metabolism in human liver S9 fraction assessed as CYP450-mediated metabolism by measuring parent compound remaining at 5 uM measured after 60 mins in presence of NADPH by UPLC analysis; format: ADME, subcellular; settings: read-out: Stability
Trypanosoma brucei [29] = assay: Resistance factor, ratio of EC50 for pentamidine/diminazene/melaminophenyl arsenical resistant Trypanosoma brucei B48 to EC50 for wild type Trypanosoma brucei Lister 427; format: functional
UGT [30] = target: T1, UGT; assay: Drug metabolism in human liver S9 fraction assessed as UGT-mediated metabolism by measuring parent compound remaining at 5 uM measured after 60 mins in presence of UDPGA by UPLC analysis; format: ADME, subcellular; settings: read-out: Stability
CYP450 [31] = assay: Drug metabolism in rat liver S9 fraction assessed as CYP450-mediated metabolism by measuring parent compound remaining at 5 uM measured immediately in presence of NADPH by UPLC analysis; format: ADME, subcellular; settings: read-out: Stability
Trypanosoma brucei [32] = assay: Antitrypanosomal activity against wild type Trypanosoma brucei Lister 427 after 48 hrs by alamar blue assay; format: functional, organism-based; settings: Lister 427, 48 h
CYP450 [33] = assay: Drug metabolism in rat liver S9 fraction assessed as CYP450-mediated metabolism by measuring parent compound remaining at 5 uM measured after 15 mins in presence of NADPH by UPLC analysis; format: ADME, subcellular; settings: read-out: Stability
UGT [34] = assay: Drug metabolism in rat liver S9 fraction assessed as UGT-mediated metabolism by measuring parent compound remaining at 5 uM measured immediately in presence of UDPGA by UPLC analysis; format: ADME, subcellular; settings: read-out: Stability
[35] = tested on: UDP-glucuronosyltransferases (UGTs); assay: Drug metabolism in human liver S9 fraction assessed as UGT-mediated metabolism by measuring parent compound remaining at 5 uM measured after 30 mins in presence of UDPGA by UPLC analysis; format: ADME, subcellular; settings: s9, 0.5 h
Trypanosoma congolense = assay: Antitrypanosomal activity against Trypanosoma congolense by resazurin assay; format: functional, organism-based
[36] = Inhibition of [3H]-adenosine transport at Trypanosoma brucei Adenosine transporter P2 expressed in pentamidine/diminazene/melaminophenyl arsenical resistant Trypanosoma brucei B48 bloodstream forms after 60 secs by scintillation counting analysis
Trypanosoma brucei [37] = assay: Resistance factor, ratio of EC50 for isometamidium resistant Trypanosoma brucei […] to EC50 for wild type Trypanosoma brucei Lister 427; format: functional

## Nc1ncnc2c1c(-c1ccccn1)cn2[C@@H]1O[C@H](CO)[C@@H](O)[C@H]1O
UGT [1]
  remaining at 0 min, 5 µM: 100%
CYP450 [2]
  remaining at 0.5 h, 5 µM: 102%
CYP450 [3]
  remaining at 1 h, 5 µM: 1.9%
CYP450 [4]
  remaining at 0.5 h, 5 µM: 12.6%
Trypanosoma brucei [5]
  Ratio EC50: 2.4
CYP450 [6]
  remaining at 0 min, 5 µM: 100%
[7]
  Ki: 2540 nM
UGT [8]
  remaining at 0 min, 5 µM: 100%
CYP450 [9]
  remaining at 0 min, 5 µM: 100%
UGT [10]
  remaining at 0.25 h, 5 µM: 115%
Trypanosoma brucei [11]
  EC50: 400 nM
Trypanosoma cruzi
  Activity: inactive
[12]
  Stability: 123%
CYP450 [13]
  remaining at 1 h, 5 µM: 31%
Trypanosoma brucei [14]
  EC50: 430 nM
UGT [15]
  remaining at 0.25 h, 5 µM: 112%
CYP450 [16]
  remaining at 0.5 h, 5 µM: 77%
CYP450 [17]
  remaining at 0.25 h, 5 µM: 36.5%
[18]
  selectivity ratio: 487
[19]
  EC50: 31 nM
UGT [20]
  remaining at 0.5 h, 5 µM: 102%
[21]
  EC50: 310 nM
[22]
  selectivity ratio: 49
[23]
  Stability: 125%
[24]
  Stability: 122%
[25]
  Stability: 122%
CYP450 [26]
  remaining at 0.25 h, 5 µM: 96%
Trypanosoma brucei [27]
  EC50: 270 nM
MRC5
  EC50: 15100 nM
CYP450 [28]
  remaining at 1 h, 5 µM: 82%
Trypanosoma brucei [29]
  Ratio EC50: 1.6
UGT [30]
  remaining at 1 h, 5 µM: 92%
CYP450 [31]
  remaining at 0 min, 5 µM: 100%
Trypanosoma brucei [32]
  EC50: 170 nM
CYP450 [33]
  remaining at 0.25 h, 5 µM: 89%
UGT [34]
  remaining at 0 min, 5 µM: 100%
[35]
  Stability: 121%
Trypanosoma congolense
  EC50: 200 nM
[36]
  Ki: 4570 nM
Trypanosoma brucei [37]
  Ratio EC50: 2.5
